Results from patent US12202821B2, “Herbicidal compounds” (SYNGENTA CROP PROTECTION AG, priority 2019, dated 2025).

What was measured:
Format in all cases: in vivo
[1] = test system: ECHCG; assay: Pre-emergence biological efficacy; conditions: evaluated after 13 days; for pest or weed control at 250 g/ha: Echinochloa crus-galli, 312 h, read-out: damage to plant (100=total damage to plant; 0=no damage to plant), ECHCG
Protocol: (§1) Pre-Emergence Biological Efficacy
(§2) Seeds of weeds and/or crops were sown in standard soil in pots. After cultivation for one day under controlled conditions in a glasshouse (at 24/16° C., day/night; 14 hours light; 65% humidity), the plants were sprayed with an aqueous spray solution derived from the formulation of the technical active ingredient in acetone/water (50:50) solution containing 0.5% Tween 20 (polyoxyethylene sorbitan monolaurate, CAS RN 9005-64-5) to give the desired final dose of test compound.
(§3) The test plants were then grown under controlled conditions in the glasshouse (at 24/16° C., day/night; 14 hours light; 65% humidity) and watered twice daily. After 13 days the test was evaluated (100=total damage to plant; 0=no damage to plant).

[2] = test system: LOLPE; assay: Pre-emergence biological efficacy; conditions: evaluated after 13 days; for pest or weed control at 250 g/ha: 312 h, read-out: damage to plant (100=total damage to plant; 0=no damage to plant), LOLPE
Protocol: as §1, §2, §3

[3] = test system: AMAPA; assay: Pre-emergence biological efficacy; conditions: evaluated after 13 days; for pest or weed control at 250 g/ha: 312 h, read-out: damage to plant (100=total damage to plant; 0=no damage to plant), AMAPA
Protocol: as §1, §2, §3

[4] = test system: EPHHL; assay: Pre-emergence biological efficacy; conditions: evaluated after 13 days; for pest or weed control at 250 g/ha: 312 h, read-out: damage to plant (100=total damage to plant; 0=no damage to plant), EPHHL
Protocol: as §1, §2, §3

[5] = test system: IPOHE; assay: Pre-emergence biological efficacy; conditions: evaluated after 13 days; for pest or weed control at 250 g/ha: Ipomoea hederacea, 312 h, read-out: damage to plant (100=total damage to plant; 0=no damage to plant), IPOHE
Protocol: as §1, §2, §3

[6] = test system: SETFA; assay: Pre-emergence biological efficacy; conditions: evaluated after 13 days; for pest or weed control at 250 g/ha: Setaria faberi, 312 h, read-out: damage to plant (100=total damage to plant; 0=no damage to plant), SETFA
Protocol: as §1, §2, §3

[7] = test system: ECHCG; assay: Post-emergence biological efficacy; conditions: evaluated after 13 days; for pest or weed control at 250 g/ha: Echinochloa crus-galli, 312 h, read-out: damage to plant (100=total damage to plant; 0=no damage to plant), ECHCG
Protocol: (§4) Post-Emergence Biological Efficacy
as §2, with “8 days” for “one day”
(§5) The test plants were then grown on under controlled conditions in a glasshouse (at 24/16° C., day/night; 14 hours light; 65% humidity) and watered twice daily. After 13 days the test was evaluated (100=total damage to plant; 0=no damage to plant).

[8] = test system: LOLPE; assay: Post-emergence biological efficacy; conditions: evaluated after 13 days; for pest or weed control at 250 g/ha: 312 h, read-out: damage to plant (100=total damage to plant; 0=no damage to plant), LOLPE
Protocol: as §4
as §2, with “8 days” for “one day”
as §5

[9] = test system: AMAPA; assay: Post-emergence biological efficacy; conditions: evaluated after 13 days; for pest or weed control at 250 g/ha: 312 h, read-out: damage to plant (100=total damage to plant; 0=no damage to plant), AMAPA
Protocol: as §4
as §2, with “8 days” for “one day”
as §5

[10] = test system: EPHHL; assay: Post-emergence biological efficacy; conditions: evaluated after 13 days; for pest or weed control at 250 g/ha: 312 h, read-out: damage to plant (100=total damage to plant; 0=no damage to plant), EPHHL
Protocol: as §4
as §2, with “8 days” for “one day”
as §5

[11] = test system: DIGSA; assay: Post-emergence biological efficacy; conditions: evaluated after 13 days; for pest or weed control at 250 g/ha: Digitaria sanguinalis, 312 h, read-out: damage to plant (100=total damage to plant; 0=no damage to plant), DIGSA
Protocol: as §4
as §2, with “8 days” for “one day”
as §5

[12] = test system: IPOHE; assay: Post-emergence biological efficacy; conditions: evaluated after 13 days; for pest or weed control at 250 g/ha: Ipomoea hederacea, 312 h, read-out: damage to plant (100=total damage to plant; 0=no damage to plant), IPOHE
Protocol: as §4
as §2, with “8 days” for “one day”
as §5

[13] = test system: CHEAL; assay: Post-emergence biological efficacy; conditions: evaluated after 13 days; for pest or weed control at 250 g/ha: Chenopodium album, 312 h, read-out: damage to plant (100=total damage to plant; 0=no damage to plant), CHEAL
Protocol: as §4
as §2, with “8 days” for “one day”
as §5

[14] = test system: SETFA; assay: Post-emergence biological efficacy; conditions: evaluated after 13 days; for pest or weed control at 250 g/ha: Setaria faberi, 312 h, read-out: damage to plant (100=total damage to plant; 0=no damage to plant), SETFA
Protocol: as §4
as §2, with “8 days” for “one day”
as §5

[15] = test system: ELEIN; assay: Post-emergence biological efficacy; conditions: evaluated after 13 days; for pest or weed control at 250 g/ha: 312 h, read-out: damage to plant (100=total damage to plant; 0=no damage to plant), ELEIN
Protocol: as §4
as §2, with “8 days” for “one day”
as §5

Row | Structure (SMILES) | pest or weed control at 250 g/ha [1] | pest or weed control at 250 g/ha [2] | pest or weed control at 250 g/ha [3] | pest or weed control at 250 g/ha [4] | pest or weed control at 250 g/ha [5] | pest or weed control at 250 g/ha [6] | pest or weed control at 250 g/ha [7] | pest or weed control at 250 g/ha [8] | pest or weed control at 250 g/ha [9] | pest or weed control at 250 g/ha [10] | pest or weed control at 250 g/ha [11] | pest or weed control at 250 g/ha [12] | pest or weed control at 250 g/ha [13] | pest or weed control at 250 g/ha [14] | pest or weed control at 250 g/ha [15] | other results
1 | COC(=O)CO/N=C(\C)C1(C)CC(c2cc(-n3c(=O)n(C)c(=S)n(C)c3=O)c(F)cc2Cl)=NO1 (stereo not shown) [Compound 299, methyl 2-[1-[3-[2-chloro-5-(3,5-dimethyl-2,6-dioxo-4-thioxo-1,3,5-triazinan-1-yl)-4-fluoro-phenyl]-5-methyl-4H-isoxazol-5-yl]ethylideneamino]oxyacetate] | 0% | 60% | 100% | 90% | 80% | 60% | 100% | 90% | 100% | 90% | 80% | 90% | 100% | 100% | 90% | 
2 | Cn1c(=S)n(C)c(=O)n(-c2cc(C3=NOC(C)(C(N)=O)C3)c(Cl)cc2F)c1=O (stereo not shown) [Compound 308, 3-[2-chloro-5-(3,5-dimethyl-2,6-dioxo-4-thioxo-1,3,5-triazinan-1-yl)-4-fluoro-phenyl]-5-methyl-4H-isoxazole-5-carboxamide] | 10% | 60% | 100% | 80% | 50% | 90% | 100% | 90% | 100% | 90% | 100% | 100% | 100% | 100% | 100% | 
3 | CCOC(=O)C1(C)CC(c2cc(-n3c(=O)n(C)c(=S)n(C)c3=O)c(F)cc2Cl)=NO1 (single isomer, unassigned) [Compound 47 (enantiomer A)] |  |  |  |  |  |  |  |  |  |  |  |  |  |  |  | damage to plant (100=total damage to plant; 0=no damage to plant), ECHCG ([1]; 250 g/ha): 60; damage to plant (100=total damage to plant; 0=no damage to plant), LOLPE ([2]; 250 g/ha): 50; damage to plant (100=total damage to plant; 0=no damage to plant), AMAPA ([3]; 250 g/ha): 100; damage to plant (100=total damage to plant; 0=no damage to plant), EPHHL ([4]; 250 g/ha): 100; damage to plant (100=total damage to plant; 0=no damage to plant), IPOHE ([5]; 250 g/ha): 90; damage to plant (100=total damage to plant; 0=no damage to plant), SETFA ([6]; 250 g/ha): 100; damage to plant (100=total damage to plant; 0=no damage to plant), ECHCG ([7]; 250 g/ha): 100; damage to plant (100=total damage to plant; 0=no damage to plant), LOLPE ([8]; 250 g/ha): 70; damage to plant (100=total damage to plant; 0=no damage to plant), AMAPA ([9]; 250 g/ha): 100; damage to plant (100=total damage to plant; 0=no damage to plant), EPHHL ([10]; 250 g/ha): 90; damage to plant (100=total damage to plant; 0=no damage to plant), DIGSA ([11]; 250 g/ha): 100; damage to plant (100=total damage to plant; 0=no damage to plant), IPOHE ([12]; 250 g/ha): 100; damage to plant (100=total damage to plant; 0=no damage to plant), CHEAL ([13]; 250 g/ha): 100; damage to plant (100=total damage to plant; 0=no damage to plant), SETFA ([14]; 250 g/ha): 100; damage to plant (100=total damage to plant; 0=no damage to plant), ELEIN ([15]; 250 g/ha): 90
4 | CCOC(=O)C1(C)CC(c2cc(-n3c(=O)n(C)c(=S)n(C)c3=O)c(F)cc2Cl)=NO1 (stereo not shown) [Compound 47, ethyl 3-[2-chloro-5-(3,5-dimethyl-2,6-dioxo-4-thioxo-1,3,5-triazinan-1-yl)-4-fluoro-phenyl]-5-methyl-4H-isoxazole-5-carboxylate] | 100% | 70% | 100% | 100% | 100% | 100% | 100% | 100% | 100% | 100% | 100% | 100% | 100% | 100% | 100% | 
5 | CN(C)S(=O)(=O)NC(=O)C1(C)CC(c2cc(-n3c(=O)n(C)c(=S)n(C)c3=O)c(F)cc2Cl)=NO1 (stereo not shown) [Compound 305, 3-[2-Chloro-5-(3,5-dimethyl-2,6-dioxo-4-thioxo-1,3,5-triazinan-1-yl)-4-fluoro-phenyl]-N-(dimethylsulfamoyl)-5-methyl-4H-isoxazole-5-carboxamide] | 30% | 30% | 100% | 60% | 80% | 90% | 100% | 100% | 100% | 100% | 100% | 100% | 100% | 100% | 100% | 
6 | COC(=O)C1(C)ON=C(c2cc(-n3c(=O)n(C)c(=S)n(C)c3=O)c(F)cc2Cl)C1C (stereo not shown) [Compound 145, Methyl 3-[2-chloro-5-(3,5-dimethyl-2,6-dioxo-4-thioxo-1,3,5-triazinan-1-yl)-4-fluoro-phenyl]-4,5-dimethyl-4H-isoxazole-5-carboxylate] | 90% | 90% | 100% | 100% | 100% | 100% | 100% | 100% | 100% | 100% | 100% | 100% | 100% | 100% | 100% | 
7 | COC(=O)C1(C(F)(F)F)CC(c2cc(-n3c(=O)n(C)c(=S)n(C)c3=O)c(F)cc2Cl)=NO1 (stereo not shown) [Compound 262, Methyl 3-[2-chloro-5-(3,5-dimethyl-2,6-dioxo-4-thioxo-1,3,5-triazinan-1-yl)-4-fluoro-phenyl]-5-trifluoromethyl-4H-isoxazole-5-carboxylate] | 30% | 30% |  | 0% | 0% | 50% | 20% | 0% | 40% | 60% | 50% | 50% | 30% | 30% | 40% | 
8 | Cn1c(=S)n(C)c(=O)n(-c2cc(C3=NOC(C)(COS(C)(=O)=O)C3)c(Cl)cc2F)c1=O (stereo not shown) [Compound 53, [3-[2-chloro-5-(3,5-dimethyl-2,6-dioxo-4-thioxo-1,3,5-triazinan-1-yl)-4-fluoro-phenyl]-5-methyl-4H-isoxazol-5-yl]methyl methanesulfonate] | 60% | 70% | 100% |  | 0% | 100% | 30% | 40% | 90% | 90% | 70% | 80% | 90% | 40% | 80% | 
